Measured values: the supplement of paper PMC13380429

Legend:
Conditions in all cases: 72 h
HepG2 [1] = assay: drug sensitivity score (DSS) for viability; higher = more toxic; extreme values may be limits of the assay
Vero E6 [2] = assay: as above
Caco-2 [3] = assay: as above
U2OS [4] = assay: as above
Calu-3 [5] = assay: as above
HepG2 [6] = assay: relative viability EC50 (midpoint between 100% and the lowest measured viability); higher = less toxic
Vero E6 [7] = assay: as above
Caco-2 [8] = assay: as above
U2OS [9] = assay: as above
Calu-3 [10] = assay: as above
HepG2 [11] = assay: cell viability relative to DMSO; higher = less toxic
Vero E6 [12] = assay: as above
Caco-2 [13] = assay: as above
U2OS [14] = assay: as above
Calu-3 [15] = assay: as above

Row | Compound | drug sensitivity score (HepG2 [1]) | drug sensitivity score (Vero E6 [2]) | drug sensitivity score (Caco-2 [3]) | drug sensitivity score (U2OS [4]) | drug sensitivity score (Calu-3 [5]) | relative viability EC50 (HepG2 [6]) | relative viability EC50 (Vero E6 [7]) | relative viability EC50 (Caco-2 [8]) | relative viability EC50 (U2OS [9]) | relative viability EC50 (Calu-3 [10]) | cell viability (HepG2 [11]; 1 nM) | cell viability (HepG2 [11]; 10 nM) | cell viability (HepG2 [11]; 100 nM) | cell viability (HepG2 [11]; 1000 nM) | cell viability (HepG2 [11]; 10000 nM) | cell viability (Vero E6 [12]; 1 nM) | cell viability (Vero E6 [12]; 10 nM) | cell viability (Vero E6 [12]; 100 nM) | cell viability (Vero E6 [12]; 1000 nM) | cell viability (Vero E6 [12]; 10000 nM) | cell viability (Caco-2 [13]; 1 nM) | cell viability (Caco-2 [13]; 10 nM) | cell viability (Caco-2 [13]; 100 nM) | cell viability (Caco-2 [13]; 1000 nM) | cell viability (Caco-2 [13]; 10000 nM) | cell viability (U2OS [14]; 1 nM) | cell viability (U2OS [14]; 10 nM) | cell viability (U2OS [14]; 100 nM) | cell viability (U2OS [14]; 1000 nM) | cell viability (U2OS [14]; 10000 nM) | cell viability (Calu-3 [15]; 1 nM) | cell viability (Calu-3 [15]; 10 nM) | cell viability (Calu-3 [15]; 100 nM) | cell viability (Calu-3 [15]; 1000 nM) | cell viability (Calu-3 [15]; 10000 nM)
1 | CCc1c2c(nc3ccc(O)cc13)-c1cc3c(c(=O)n1C2)COC(=O)[C@]3(O)CC [SN-38] | 32.4 | 11.9 | 15.6 | 16.2 | 19.7 | 0.0122 µM | 0.65 µM | 0.183 µM | 0.326 µM | 0.0579 µM | 86.6% | 48.6% | 29.5% | 5.6% | 2.4% | 102% | 101% | 71.2% | 58.3% | 9.6% | 99.4% | 89.5% | 73% | 34.1% | 20.7% | 107% | 102% | 79.9% | 25.8% | 4.9% | 112% | 85.9% | 54% | 25.1% | 28.8%
2 | COc1ccccc1Oc1c(NS(=O)(=O)c2ccc(C)cn2)nc(-c2ccncc2)nc1OC [SPP301] | 0 | 0 | 0.1 | 0 | 0 | > 10 µM | > 10 µM | > 10 µM | > 10 µM | > 10 µM | 106% | 92.6% | 93.2% | 95.1% | 101% | 102% | 102% | 105% | 94.3% | 102% | 93.2% | 100% | 105% | 106% | 84.4% | 99.9% | 102% | 98.8% | 100% | 95.4% | 85.6% | 96.1% | 93.4% | 99% | 98%
3 | CC(=O)Nc1cccc(Nc2ncnc(N3CCC(OCc4ccc(OC(F)(F)F)cc4)CC3)n2)c1C [TC-N-1752] | 3.4 | 0 | 0.5 | 0 | 0 | 3.47 µM | > 10 µM | > 10 µM | > 10 µM | > 10 µM | 105% | 95.8% | 93% | 104% | 31.5% | 95.8% | 102% | 100% | 94.4% | 107% | 94.7% | 97.8% | 94.5% | 101% | 80.4% | 96% | 98.7% | 95.2% | 94.4% | 99.3% | 93.9% | 102% | 87.1% | 97.8% | 107%
4 | Clc1ccc(C2=CCC[C@H]3CC[C@@H]2N3)cn1 [UB-165] | 0 | 0 | 0 | 0 | 0 | > 10 µM | > 10 µM | > 10 µM | > 10 µM | > 10 µM | 98.2% | 97% | 93.1% | 95.5% | 102% | 101% | 102% | 95.6% | 100% | 103% | 92.2% | 97.7% | 96.8% | 93% | 102% | 101% | 107% | 97.1% | 97.5% | 102% | 108% | 107% | 91.3% | 93.2% | 100%
5 | Cc1ccc(S(=O)(=O)Nc2nc3ccccc3nc2Nc2ccc3nsnc3c2)cc1 [XL147] | 0 | 0 | 0 | 0 | 0.4 | > 10 µM | > 10 µM | > 10 µM | > 10 µM | > 10 µM | 107% | 101% | 90.9% | 97.7% | 99.5% | 93.7% | 94.1% | 100% | 96.3% | 95.2% | 96.1% | 107% | 98.6% | 105% | 92.9% | 96% | 103% | 104% | 99.2% | 95.1% | 93.3% | 113% | 98.6% | 88.6% | 97.6%
6 | Cc1ccc(/C(=C\CN2CCCC2)c2cccc(/C=C/C(=O)O)n2)cc1 [acrivastine] | 0 | 0 | 0 | 0 | 0 | > 10 µM | > 10 µM | > 10 µM | > 10 µM | > 10 µM | 102% | 98.2% | 102% | 98.3% | 95.6% | 98.1% | 87.9% | 99.8% | 85.3% | 112% | 87.6% | 92.3% | 95.4% | 86.8% | 115% | 100% | 103% | 98.4% | 102% | 103% | 98.2% | 98.1% | 104% | 116% | 99.1%
7 | CN1CCC(=C2c3ccccc3CCn3c(C=O)cnc32)CC1 [alcaftadine] | 0 | 0 | 0 | 0 | 0 | > 10 µM | > 10 µM | > 10 µM | > 10 µM | > 10 µM | 92.7% | 97.2% | 103% | 101% | 104% | 89.4% | 99.4% | 87.1% | 91.6% | 107% | 98.1% | 90.6% | 93.8% | 98.5% | 110% | 108% | 101% | 101% | 97.7% | 99.6% | 99.3% | 99.5% | 100% | 87.4% | 105%
8 | C/C=C/c1cc(OC)c(OC)cc1OC [alpha-asarone] | 0 | 0 | 0 | 0 | 0 | > 10 µM | > 10 µM | > 10 µM | > 10 µM | > 10 µM | 91.3% | 107% | 91.9% | 93.3% | 90.3% | 109% | 86.1% | 99.8% | 101% | 104% | 87.7% | 108% | 88.3% | 118% | 93.5% | 97.3% | 101% | 93.9% | 100% | 100% | 94.6% | 99.8% | 102% | 94% | 105%
9 | CC(=O)OCC(=O)[C@@]12OC3(CCCC3)O[C@@H]1C[C@H]1[C@@H]3CCC4=CC(=O)C=C[C@]4(C)[C@@]3(F)[C@@H](O)C[C@@]12C [amcinonide] | 0 | 0 | 0 | 0 | 0.3 | > 10 µM | > 10 µM | > 10 µM | > 10 µM | > 10 µM | 108% | 97.1% | 98.2% | 91.8% | 99.8% | 102% | 96.2% | 99.6% | 95.6% | 95.4% | 104% | 105% | 94.6% | 107% | 104% | 101% | 101% | 92.6% | 97.2% | 91.5% | 101% | 103% | 93.9% | 89.3% | 97%
10 | Nc1ccncc1N [amifampridine] | 0 | 0 | 0 | 0 | 0 | > 10 µM | > 10 µM | > 10 µM | > 10 µM | > 10 µM | 98.1% | 96.4% | 98% | 93.7% | 89.6% | 95.7% | 100% | 98.2% | 97.7% | 91.8% | 99.2% | 97.3% | 91% | 91% | 103% | 97.7% | 95.5% | 96.1% | 95% | 96.9% | 106% | 96.9% | 96% | 98.8% | 98.1%
11 | NCCCCCC(=O)O [aminocaproic-acid] | 0 | 0 | 0 | 0 | 0 | > 10 µM | > 10 µM | > 10 µM | > 10 µM | > 10 µM | 81.2% | 95% | 96.6% | 94.1% | 90.9% | 102% | 106% | 98.6% | 109% | 92.6% | 119% | 99.3% | 102% | 105% | 109% | 104% | 97.1% | 101% | 95% | 98.5% | 105% | 90.6% | 96.9% | 91.3% | 99.4%
12 | O=C(O)C(F)(F)C(F)(F)C(F)(F)C(F)(F)C(F)(F)C(F)(F)C(F)(F)F [ammonium-perfluorocaprylate] | 0 | 0 | 0 | 0 | 0 | > 10 µM | > 10 µM | > 10 µM | > 10 µM | > 10 µM | 113% | 105% | 97.3% | 99.5% | 102% | 98.2% | 99.5% | 99.8% | 100% | 96% | 96% | 96% | 107% | 95.4% | 103% | 104% | 95.2% | 101% | 92.7% | 104% | 98% | 110% | 100% | 93.6% | 99.3%
